Source: the NIST ThermoML archive (doi:10.1016/j.fluid.2005.02.015)

How the values were obtained:
[1] = refractive index (Na D-line) (dimensionless); conditions: 293.15 K; 101.33 kPa; Liquid; Standard Abbe refractometry
[2] = Liquid; for mass density: 298.15 K, 101.33 kPa
[3] = xn = mol fraction of the nth substance listed; conditions: 298.15 K, 101.33 kPa, Liquid

CCOC(=O)[C@H](C)O [(S)-(-)-ethyl lactate]
Conditions | mass density [kg/m3] | refractive index
[1] | – | 1.4129
[2] | 1032.94 | –

Conditions | vapor or sublimation pressure [kPa]
[2], 427.65 K | 101.33

CCOC(=O)[C@H](C)O [(S)-(-)-ethyl lactate] + CCO
[3]
Conditions | mass density [kg/m3]
x2 = 0 | 1032.94
x2 = 0.1242 | 1018.42
x2 = 0.2256 | 1004.73
x2 = 0.312 | 991.37
x2 = 0.3921 | 977.447
x2 = 0.5236 | 950.894
x2 = 0.5735 | 939.295
x2 = 0.6735 | 913.364
x2 = 0.7574 | 887.971
x2 = 0.7941 | 875.598
x2 = 0.8267 | 863.971
x2 = 0.8559 | 852.975
x2 = 0.9578 | 809.773

CCO [ethanol]
Conditions | mass density [kg/m3] | refractive index
[1] | – | 1.3614
[2] | 789.261 | –

Conditions | vapor or sublimation pressure [kPa]
[2], 351.44 K | 101.33

CC(C)OC(=O)[C@H](C)O [isopropyl (S)-2-hydroxypropionate] + CC(C)O
[3]
Conditions | mass density [kg/m3]
x2 = 0 | 986.942
x2 = 0.087 | 976.815
x2 = 0.197 | 962.69
x2 = 0.281 | 950.807
x2 = 0.3554 | 939.404
x2 = 0.542 | 906.498
x2 = 0.5652 | 901.903
x2 = 0.6921 | 874.425
x2 = 0.7733 | 854.447
x2 = 0.8365 | 837.361
x2 = 0.8675 | 828.428
x2 = 0.9249 | 810.801
x2 = 0.9516 | 802.104

CCCCO [butan-1-ol]
Conditions | mass density [kg/m3] | refractive index
[1] | – | 1.3993
[2] | 809.572 | –

Conditions | vapor or sublimation pressure [kPa]
[2], 390.88 K | 101.33

CCCCOC(=O)[C@H](C)O [butyl L-lactate]
Conditions | mass density [kg/m3] | refractive index
[1] | – | 1.4218
[2] | 982.178 | –

[2]
Conditions | vapor or sublimation pressure [kPa]
390 K | 10.62
395 K | 13.01
400 K | 15.8
405 K | 19.04
410 K | 22.79
415 K | 27.09
420 K | 32
425 K | 37.58
430 K | 43.87
435 K | 50.94
440 K | 58.84
445 K | 67.65
450 K | 77.41
455 K | 88.19
460 K | 100.05
460.75 K | 101.33

CC(C)O [propan-2-ol]
Conditions | mass density [kg/m3] | refractive index
[1] | – | 1.3774
[2] | 785.428 | –

Conditions | vapor or sublimation pressure [kPa]
[2], 355.36 K | 101.33

CC(C)OC(=O)[C@H](C)O [isopropyl (S)-2-hydroxypropionate]
Conditions | mass density [kg/m3] | refractive index
[1] | – | 1.4105
[2] | 986.942 | –

[2]
Conditions | vapor or sublimation pressure [kPa]
355 K | 7.424
360 K | 9.156
365 K | 11.22
370 K | 13.68
375 K | 16.58
380 K | 20
385 K | 23.99
390 K | 28.63
395 K | 34.02
400 K | 40.24
405 K | 47.39
410 K | 55.59
415 K | 64.93
420 K | 75.56
425 K | 87.6
430 K | 101.19
430.21 K | 101.33

CCCCO [butan-1-ol] + CCCCOC(=O)[C@H](C)O
Conditions | mass density [kg/m3]
[3], x1 = 1 | 809.572

CCO [ethanol] + CCOC(=O)[C@H](C)O
Conditions | mass density [kg/m3]
[3], x1 = 1 | 789.261

CC(C)O [propan-2-ol] + CC(C)OC(=O)[C@H](C)O
Conditions | mass density [kg/m3]
[3], x1 = 1 | 785.428

CCCCOC(=O)[C@H](C)O [butyl L-lactate] + CCCCO
[3]
Conditions | mass density [kg/m3]
x2 = 0 | 982.178
x2 = 0.0989 | 971.809
x2 = 0.1806 | 962.459
x2 = 0.2599 | 952.704
x2 = 0.3973 | 933.863
x2 = 0.5154 | 915.521
x2 = 0.5669 | 906.818
x2 = 0.6645 | 888.883
x2 = 0.7069 | 880.503
x2 = 0.7854 | 863.836
x2 = 0.8546 | 847.901
x2 = 0.9174 | 832.199
x2 = 0.9728 | 817.297
